The results in this text go back to patent US7498408B2, “Ryanodine receptor polypeptides” (E. I. du Pont de Nemours and Company, priority 2002, dated 2009).

For experiment [1], the system named is native cockroach ryanodine receptors (in embryonic neuronal cells). The experiment in a line: Calcium release assay, calcium imaging in primary embryonic cockroach neuronal cells. The experiment is classed as cell-based, Periplaneta americana. As to conditions: for Calcium Release (P. americana): known ryanodine receptor agents, native receptors in embryonic neuronal cells, result in words. From the text:
Embryonic neuronal cultures of the American cockroach Periplaneta americana were established, with minor modifications, following the method of Beadle and Lees (1988) (in Cell Culture Approaches to Invertebrate Neuroscience, Academic Press, New York, pp 123-127). Briefly, 26-27-day old oothecae were collected, surface-sterilized and cut open along a line one-third of the distance below the dorsal midline. The heads were removed and placed in Schneider's Drosophila medium (Invitrogen Life Technologies™, Carlsbad, Calif.). Using fine forceps 40 brains were individually removed and placed in a small glass vial containing 700 μl of ‘5+4’ medium (‘5+4’ medium contained 5 parts Schneider's Drosophila medium plus 4 parts roach Basal Medium Eagle, with Earle's salts (BME, Sigma™, St. Louis, Mo.). Roach BME (with Earle's salts) contained 5 parts Hepes (1 M), 1 part penicillin/streptomycin and 44 parts BME (with Earle's salts). ‘5+4’ medium was made fresh and sterile filtered (0.2 μm filter) just prior to use). The brains were dissociated by sequential trituration as follows: 1) brains were passed through a standard Pasteur pipette 10 times; 2) the resulting tissue suspension was passed an additional 5 times through a Pasteur pipet with tip flamed to about half of its original diameter; 3) a final 5 passes were performed using a Pasteur pipet with tip flamed to slightly less than half of its original diameter. A repeat pipettor was used to dispense a 5 μl volume of the resulting suspension into the center of each well of a 96-well, glass-bottom plate previously coated with poly-L-lysine (0.2 mg/ml solution). Cells attached to the bottom of the wells during a 50 min incubation at 27-29° C. 150 ul of a 1:1 mixture of Leibovitz's L-15 medium and Yunker's modified Grace's medium was added, and plates were maintained in a humid incubator at 27-29° C. until use. After cells were allowed to attach wells were filled with a 1:1 mixture of Leibovitz's L-15 medium and Yunker's modified Grace's medium (Leibovitz's L-15 and Grace's medium were obtained from Invitrogen Life Technologies™, Carlsbad, Calif. and Yunker's modified Grace's medium was made with Grace's medium modified by addition of 5 mg L-methionine, 10 mg L-alanine, 182 mg MgCl26H20, 1 g Albumin Fraction V, 7 ml Fetal bovine serum, 10 ml Chick embryo extract, 2 ml Penicillin/Streptomycin, and 2 mg 20-hydroxyecdysone (prepared in ethanol prior to addition) to a final volume of 100 ml and sterile filtered (0.2 μm filter)). Cells were maintained in a high humidity incubator at 29° C. until testing.
Cells were rinsed in standard physiological saline having the following composition (mM): NaCl 190; CaCl2 9; KCl 3.1; probenicid 1; Tris buffer 10; pH 7.2. Cells were then bathed in standard physiological saline containing the calcium sensitive fluoroprobe Fluo4 AM (2 μM) and Pluronic F127 (0.002%) for 45 min. Cells were then rinsed in standard physiological saline for at least 15 min prior to testing. Within the hour prior to testing, standard physiological saline was replaced with standard physiological saline containing the organic cation channel blocker pimozide (10 μM), to inhibit influx of external calcium through voltage-gated calcium channels. The 96-well plate was placed on a PriorTm motorized stage mounted onto a Nikon Diaphot microscope and imaged using a 20× Fluor objective (NA 0.75). Individual wells from the 96-well plate were sequentially excited with light at 495 nm, and the emitted fluorescence at 530 nm was detected using a Hamamatsu ORCA ER digital camera with 2 pixel binning (image size 672×512 pixels).
Acquisition control, image processing and image analysis were conducted using Universal Imaging Corporation's MetaMorph™ imaging software (Universal Imaging, West Chester, Pa.). A series of 3 “control” images were acquired for each well. Experimental compounds were added followed by acquisition of 4 “experimental” images for each well. […]

Experiment [2] concerns the target cockroach ryanodine receptor (roach femoral muscle membranes) (Periplaneta americana, UniProt Z9HFG3YSF4). The experiment in a line: Radioligand displacement ([3H]-GN analog Cpd 1) from roach femoral muscle membranes. As to conditions: for IC50: read-out: Displacement IC50 (nM) P. americana, displacement of [3H]-Cpd 1, roach muscle membranes, 60 min at 32° C.; for Radioligand Displacement (P. americana): known ryanodine receptor agents, result in words. A general note: Loss of bound radioactivity is the signal in a displacement assay; it reports binding, not function.
Description: Mid and hind legs from 6-9 week old cockroaches were excised and immediately placed in liquid nitrogen. Excised legs could be stored at −80° C. for several months, if necessary, prior to further fractionation. Typically, membrane preparations started with approximately 55 g (wet weight) of excised legs. All subsequent steps were carried out at 4° C.
The legs were homogenized on ice using a Polytron (Brinkmann Instruments, Westbury, N.Y.) for 2 min at Setting #3. In order to remove all fragments of cuticle, the homogenate was first passed through two layers of cheesecloth and then through one layer of glass wool overlaid on two layers of cheesecloth. On occasion, the cheesecloth clogged with particulates prior to passing all material through. In such cases, fresh cheesecloth (and glass wool) was used for the remainder of the suspension. […] The supernatant was collected and centrifuged for 30 min at 30,000×gmax. The resulting pellet was resuspended in buffer A (1.5 M KCl, 0.3 M sucrose, 0.5 mM CaCl2, 20 mM Tris-HCl, pH 8.0). The membrane suspension was homogenized by hand (about 25 strokes) using a glass-teflon homogenizer. […] Subsequently, the membrane suspension was adjusted to 4 μg protein/μg by addition of buffer A and then stored in 1 ml aliquots at −80° C.
The assay was begun by addition of 25 μl of roach muscle membranes at 2 μg/μl (prepared by thawing and addition of an equal volume of buffer B), and incubation was carried out for 60 min at 32° C. Assays were carried out in triplicate.
The compound was allowed to pre-incubate with the membranes for 10 min at 32° C. […] Assays were carried out in triplicate.
Following incubation, assays were quenched with ice-cold buffer B and immediately filtered on pre-wefted Unifilter 96 GF/B filter microplates using a Unifilter 96 Harvester (PerkinElmer™, Boston, Mass.). Each assay well was then washed 10 times with buffer B, and collected on the same filter microplate. The filter microplates were then placed in a vacuum oven at 32° C. for 3 h, following which 50 μl of Microscint 0 (PerkinElmer™, Boston, Mass.) was added to each well. Plates were then heat sealed and counted using a Topcount microplate scintillation counter (PerkinElmer™, Boston, Mass.).

Experiment [3] addresses T1, recombinant Drosophila melanogaster ryanodine receptor (expressed in Sf9 cells) (Drosophila melanogaster, UniProt Q24498).
T1 construct: His tag + attB1 + Lox footprint (N-terminal vector extension; present only if the Cre-Lox vector was the one used) (N); expressed in transfected cells
It is filed as cell-based. As to conditions: for Calcium Release (D. melanogaster): known ryanodine receptor agents, transiently or stably expressed in Sf9 cells, result in words. An excerpt:
(§1) Several drops of a suspension of recombinant Spodoptera frugiperda cell line, Sf9, transiently expressing insect ryanodine receptors were placed on a poly-L-lysine-coated coverslip and allowed to attach. Cells were then rinsed in physiological saline having the following composition (mM): NaCl 130; KCl 5.4; MgCl2 1.2; CaCl2 1.0; NaHCO3 4.2; NaH2P04 7.3; Glucose 10; Sucrose 63; MES 20; pH 6.3. Cells were then bathed in physiological saline containing the calcium sensitive fluoroprobe, Fura-2 AM (2 μM), and Pluronic F127 (0.002%) for 30 min. Cells were rinsed in standard physiololgical saline for at least 15 min prior to testing. Testing was conducted in standard physiological saline, as the cell lines are devoid of functional voltage-gated calcium channels.
Cell-attached coverslips were placed in a sealed chamber with physiological saline continuously perfused across the cells using a peristaltic pump. Test compounds solubilized in physiological saline were applied by switching the perfusate source.
(§2) For studies involving the stable recombinant Spodoptera frugiperda cell line, Sf9, (other cell lines could also be used such as Sf21, S2, etc) expressing an insect ryanodine receptor from Drosophila melanogaster, or Heliothis virescens (alternatively receptors from other species such as Myzus persicae, Peregrinus maidis, Aphis gossypii, etc) were grown in T75 (or other appropriate sized) flasks in supplemented Grace's insect medium. Cells were maintained in an incubator at 22° C. until testing. Cells were suspension-loaded with the calcium sensitive fluoroprobe, Fura-2 AM (1-2 μM) and Pluronic F127 (0.002%) in culture medium for 30 minutes under agitation. Cells were then centrifuged and the pellet resuspended in physiological saline having the following composition (mM): NaCl 130; KCl 5.4; MgCl2 1.2; CaCl2 1.0; NaHCO3 4.2; NaH2P04 7.3; Glucose 10; Sucrose 63; MES 20; pH 6.3 at approximately 150,000-200,000 cells per well (96-well plate). After a 30 minute equilibration period the cell plate was tested using a Molecular Devices' FlexStation™ system with dual wavelength excitation (340 and 380 nm) and fluorescence emission measured at 510 nm. Test and control samples were added using integrated fluidics and the intracellular calcium monitored over a 2 minute period.

Experiment [4] relates to recombinant Heliothis virescens ryanodine receptor (expressed in Sf9 cells). In words: Calcium release assay in Sf9 cells expressing recombinant Heliothis virescens ryanodine receptor. The experiment is classed as cell-based. As to conditions: caffeine 10 mM; Compound 14 1 μM; Fura-2 AM imaging.
Excerpt: as §1
(§3) Imaging studies were conducted using a Nikon Diaphot microscope with a 40× oil immersion objective (NA 1.3) Image acquisition and processing was performed using the MetaFluor™ imaging system from Universal Imaging Corporation (West Chester, Pa.) Calcium calibration was carried out using the Grynkiewicz equation with a dissociation constant (Kd) of 145 nM for Fura-2 (Grynkiewicz et al., 1985). Cell-attached coverslips were placed in a sealed chamber with physiological saline continuously perfused across the cells using a peristaltic pump. Test compounds solubilized in physiological saline were applied by switching the perfusate source.
as §2

Experiment [5] concerns control Sf9 cells without DNA / wild type Sf9. The experiment in a line: Calcium response in control or wild-type Sf9 cells lacking recombinant receptor. It is filed as cell-based, Spodoptera frugiperda. As to conditions: caffeine 10 mM; Compound 16 10 and 100 nM.
Excerpt: as §1, §3, §2

Bounds are passed on as bounds.

For orientation: IC50 means the concentration needed to halve the response being measured. With `Cc1cccc(C(=O)NC(C)C)c1NC(=O)c1cc(Cl)nn1-c1ncccc1Cl` [Cpd 8], in experiment [1], the “Calcium Release Threshold (nM) P. americana” value is below 300 nM. In experiment [2], the IC50 is below 300 nM.

For `Cc1cc(Br)cc(C(=O)NC(C)C)c1NC(=O)c1cc(Br)nn1-c1ncccc1Cl` [Cpd 12], the “Calcium Release Threshold (nM) P. americana” value in experiment [1] was below 300 nM. For the same compound, in experiment [2], the IC50 is below 300 nM.

Turning to `Cc1cc(Br)cc(C(=O)NCC(C)C)c1NC(=O)c1cc(C(F)(F)F)nn1-c1ccccc1Cl` [Cpd 3], the IC50 in experiment [2] was below 300 nM.

Turning to `CNC(=O)c1cc(Cl)cc(C)c1NC(=O)c1cc(C(F)(F)F)nn1-c1ncccc1Cl` [Cpd 11], the “Calcium Release Threshold (nM) P. americana” value in experiment [1] is given as below 300 nM. Also, the “Calcium Release Threshold (nM) D. melanogaster” value in experiment [3] is reported as below 300 nM. The IC50 in experiment [2] was below 300 nM.

As for `Cc1cc(Cl)cc(C(=O)NC(C)C)c1NC(=O)c1cc(C(F)(F)F)nn1-c1ncccc1Cl` [Cpd 10], in experiment [1], the “Calcium Release Threshold (nM) P. americana” value is recorded as below 300 nM. Further, the IC50 in experiment [2] is below 300 nM.

For `Cc1cc(Br)cc(C(=O)NC(C)C)c1NC(=O)c1cc(C(F)(F)F)nn1-c1ncccc1Cl` [Cpd 9], the “Calcium Release Threshold (nM) P. americana” value in experiment [1] was below 300 nM. Also, the IC50 in experiment [2] is below 300 nM.

As for `CNC(=O)c1cc(Cl)cc(C)c1NC(=O)c1cc(Br)nn1-c1ncccc1Cl` [Cpd 14], the “Calcium Release Threshold (nM) P. americana” value in experiment [1] is below 300 nM. Also, the “Calcium Release Threshold (nM) D. melanogaster” value in experiment [3] is recorded as below 300 nM. The “calcium responses, Sf9 stably expressing H. virescens ryanodine receptor (FIG. 5)” value in experiment [4] was “calcium responses elicited”. Besides, the IC50 in experiment [2] is below 300 nM.

In the case of `CC(C)[C@@]1(O)[C@@H](OC(=O)c2ccc[nH]2)[C@@]2(O)[C@@]3(C)C[C@]4(O)O[C@@]5([C@H](O)[C@@H](C)CC[C@]35O)[C@@]2(O)[C@@]14C` [Ryanodine], the “Calcium Release (P. americana)” value in experiment [1] is “Antagonist”. Moreover, in experiment [3], the “Calcium Release (D. melanogaster)” value is given as “Antagonist”. Also, the “Radioligand Displacement (P. americana)” value in experiment [2] was “Inactive”.

Regarding `CCNC(=O)c1cc(Br)cc(Br)c1NC(=O)c1cc(C(F)(F)F)nn1-c1ncccc1Cl` [Cpd 18], the IC50 in experiment [2] is below 300 nM.

As to `N.N.N.N.N.N.N.N.N.N.N.N.N.N.[Cl-].[Cl-].[Cl-].[Cl-].[Cl-].[Cl-].[O-2].[O-2].[Ru+3].[Ru+3].[Ru+4]` [Ruthenium Red, reference compound], the “Calcium Release (P. americana)” value in experiment [1] is given as “Inactive”. Besides, the “Calcium Release (D. melanogaster)” value in experiment [3] was “Antagonist”. In addition, in experiment [2], the “Radioligand Displacement (P. americana)” value is reported as “Displacer”.

On to `Cc1cc(Cl)cc(C(=O)NC(C)C)c1NC(=O)c1cc(Cl)nn1-c1ncccc1Cl` [Cpd 16], for which the “Calcium Release Threshold (nM) P. americana” value in experiment [1] is reported as below 300 nM. Moreover, in experiment [3], the “Calcium Release Threshold (nM) D. melanogaster” value is on record as below 300 nM. Moreover, the “calcium responses, Sf9 transiently expressing D. melanogaster ryanodine receptor (FIG. 3)” value in experiment [3] (96 hr post-transfection, caffeine 10 mM, Compound 16 10 and 100 nM) is reported as “calcium responses elicited”. Moreover, the “calcium responses in control cells without DNA (FIG. 3)” value in experiment [5] is given as “No significant calcium responses”. Also, the half-maximal inhibitory concentration (IC50) in experiment [2] was below 300 nM.

As to `CNC(=O)c1cc(Cl)cc(C)c1NC(=O)c1cc(Cl)nn1-c1ncccc1Cl` [Cpd 17], the “Calcium Release Threshold (nM) P. americana” value in experiment [1] was below 300 nM. In addition, the IC50 in experiment [2] is below 300 nM.

As for `Cc1cc(Cl)cc(C(=O)NC(C)C)c1NC(=O)c1cc(Br)nn1-c1ncccc1Cl` [Cpd 13], the IC50 in experiment [2] is below 300 nM.

As for `[3H]c1cc(C)c(NC(=O)c2cc(C(F)(F)F)nn2-c2ccccc2F)c(C(=O)NC(C)C)c1` [Cpd 1, 1-(2-Fluorophenyl)-N-[2-methyl-4-tritio-6-[[(1-methylethyl)amino]carbonyl]phenyl]-3-(trifluoromethyl)-1H-pyrazole-5-carboxamide], the “Calcium Release Threshold (nM) P. americana” value in experiment [1] is below 1000 nM. Further, in experiment [3], the “Calcium Release Threshold (nM) D. melanogaster” value is recorded as below 300 nM. The IC50 in experiment [2] is below 300 nM.

With `Cc1cccc(C(=O)NC(C)C)c1NC(=O)c1cc(Br)nn1-c1ncccc1Cl` [Cpd 7], the “Calcium Release Threshold (nM) P. americana” value in experiment [1] is recorded as below 300 nM. Further, the IC50 in experiment [2] is below 300 nM.

Turning to `Cc1cccc(C(=O)NC(C)C)c1NC(=O)c1cc(C(F)(F)F)nn1-c1ccccc1Cl` [Cpd 2], in experiment [1], the “Calcium Release Threshold (nM) P. americana” value was below 300 nM. Further, the “Calcium Release Threshold (nM) D. melanogaster” value in experiment [3] is listed as below 300 nM. The IC50 in experiment [2] is below 300 nM.

In the case of `COc1cccc2c1C(=O)c1c(O)c3c(c(O)c1C2=O)C[C@@](O)(C(=O)CO)C[C@@H]3O[C@H]1C[C@H](N)[C@H](O)[C@H](C)O1.Cl` [Doxorubicin, reference compound], the “Calcium Release (P. americana)” value in experiment [1] is “Inactive”.

Regarding `CNC(=O)c1cc(Br)cc(C)c1NC(=O)c1cc(C(F)(F)F)nn1-c1ncccc1Cl` [Cpd 15], the “Calcium Release Threshold (nM) P. americana” value in experiment [1] was below 300 nM. For the same compound, the IC50 in experiment [2] is below 300 nM.

In the case of `Oc1c(Br)cc2[nH]c3cnccc3c2c1Br` [Bromoeudistomin D, reference compound], in experiment [1], the “Calcium Release (P. americana)” value is given as “Agonist”.

On to `CNC(=O)c1cccc(C)c1NC(=O)c1cc(C(F)(F)F)nn1-c1ncccc1Cl` [Cpd 6], for which the “Calcium Release Threshold (nM) P. americana” value in experiment [1] is given as below 300 nM. Also, the IC50 in experiment [2] is below 300 nM.
